Experimental data reported in paper PMC5218480 (PLoS ONE, 2017).

Tested on: MV-4-11 cells
Experiment: Gene expression microarray analysis (Affymetrix PrimeView) and GSEA
Format: cell-based, human
Set-up: RFU PODN (11730768_x_at) / Fold change /veh PODN (11730768_x_at) / RFU LINC00158 (11744669_a_at) / Fold change /veh LINC00158 (11744669_a_at) / RFU DUSP10 (11751237_a_at) / Fold change /veh DUSP10 (11751237_a_at) / RFU ID3 (11757404_x_at) / Fold change /veh ID3 (11757404_x_at) / RFU PLEKHG5 (11737974_s_at) / Fold change /veh PLEKHG5 (11737974_s_at) / RFU LRRC4B (11730491_at) / Fold change /veh LRRC4B (11730491_at) / RFU GIMAP4 (11747438_a_at) / Fold change /veh GIMAP4 (11747438_a_at) / RFU KRT8 (11758183_x_at) / Fold change /veh KRT8 (11758183_x_at) / RFU CNN1 (11734310_a_at) / Fold change /veh CNN1 (11734310_a_at) / RFU VPS37D (11726825_at) / Fold change /veh VPS37D (11726825_at) / RFU C10orf10 (11716522_x_at) / Fold change /veh C10orf10 (11716522_x_at) / RFU KIR2DL2 /// KIR2DL4 /// KIR2DL5A /// KIR2DL5B /// KIR2DS1 /// KIR2DS2 /// KIR2DS3 /// KIR2DS4 /// KIR3DL3 /// KIR3DL3 /// KIR3DS1 (11738374_at) / Fold change /veh KIR2DL2 /// KIR2DL4 /// KIR2DL5A /// KIR2DL5B /// KIR2DS1 /// KIR2DS2 /// KIR2DS3 /// KIR2DS4 /// KIR3DL3 /// KIR3DL3 /// KIR3DS1 (11738374_at) / RFU C1QL1 (11718748_at) / Fold change /veh C1QL1 (11718748_at) / RFU TMPRSS4 (11747572_a_at) / Fold change /veh TMPRSS4 (11747572_a_at) / RFU HAMP (11756126_x_at) / Fold change /veh HAMP (11756126_x_at) / RFU RNFT2 (11725882_a_at) / Fold change /veh RNFT2 (11725882_a_at) / RFU NR4A2 (11747474_a_at) / Fold change /veh NR4A2 (11747474_a_at) / RFU ABCC12 (11746883_a_at) / Fold change /veh ABCC12 (11746883_a_at) / RFU TMEM136 (11760407_x_at) / Fold change /veh TMEM136 (11760407_x_at) / RFU CLDN22 /// WWC2 (11732394_at) / Fold change /veh CLDN22 /// WWC2 (11732394_at) / RFU HLA-DPB1 (11760878_x_at) / Fold change /veh HLA-DPB1 (11760878_x_at) / RFU SPINT1 (11716480_a_at) / Fold change /veh SPINT1 (11716480_a_at) / RFU GAP43 (11754022_s_at) / Fold change /veh GAP43 (11754022_s_at) / RFU A4GNT (11735810_at) / Fold change /veh A4GNT (11735810_at) / RFU PRB3 (11715151_x_at) / Fold change /veh PRB3 (11715151_x_at) / RFU TUBB4B (11761932_at) / Fold change /veh TUBB4B (11761932_at) / RFU CAPN14 (11732068_a_at) / Fold change /veh CAPN14 (11732068_a_at) / RFU TMCC2 (11721928_a_at) / Fold change /veh TMCC2 (11721928_a_at) / RFU IRGQ (11745062_a_at) / Fold change /veh IRGQ (11745062_a_at) / RFU FAM174B (11720279_a_at) / Fold change /veh FAM174B (11720279_a_at) / RFU TMPRSS4 (11748680_a_at) / Fold change /veh TMPRSS4 (11748680_a_at) / RFU FAM212B (11763350_a_at) / Fold change /veh FAM212B (11763350_a_at) / RFU PLEKHG5 (11743358_a_at) / Fold change /veh PLEKHG5 (11743358_a_at) / RFU ZSCAN30 (11745921_a_at) / Fold change /veh ZSCAN30 (11745921_a_at) / RFU CMKLR1 (11741424_a_at) / Fold change /veh CMKLR1 (11741424_a_at) / RFU LOC101060620 /// MAPK8IP1 (11723275_at) / Fold change /veh LOC101060620 /// MAPK8IP1 (11723275_at) / RFU SPTSSB (11747773_x_at) / Fold change /veh SPTSSB (11747773_x_at) / RFU PRSS12 (11739890_at) / Fold change /veh PRSS12 (11739890_at) / RFU BIN1 (11741810_x_at) / Fold change /veh BIN1 (11741810_x_at) / RFU WNT11 (11732464_a_at) / Fold change /veh WNT11 (11732464_a_at) / RFU C10orf10 (11716521_a_at) / Fold change /veh C10orf10 (11716521_a_at) / RFU C5orf56 (11738089_at) / Fold change /veh C5orf56 (11738089_at) / RFU CYB561 (11721691_x_at) / Fold change /veh CYB561 (11721691_x_at) / RFU ANKRD19P (11752326_a_at) / Fold change /veh ANKRD19P (11752326_a_at) / RFU OR2T12 /// OR2T33 /// OR2T8 (11738714_s_at) / Fold change /veh OR2T12 /// OR2T33 /// OR2T8 (11738714_s_at) / RFU VCAN (11748164_a_at) / Fold change /veh VCAN (11748164_a_at) / RFU JSRP1 (11732532_at) / Fold change /veh JSRP1 (11732532_at) / RFU KRTAP10-11 (11738290_x_at) / Fold change /veh KRTAP10-11 (11738290_x_at) / RFU MYO3A (11730013_a_at) / Fold change /veh MYO3A (11730013_a_at) / RFU EBF3 (11725865_a_at) / Fold change /veh EBF3 (11725865_a_at) / RFU CAMK2N1 (11719241_x_at) / Fold change /veh CAMK2N1 (11719241_x_at) / RFU C5orf56 (11738088_a_at) / Fold change /veh C5orf56 (11738088_a_at) / RFU OLFML3 (11715873_a_at) / Fold change /veh OLFML3 (11715873_a_at) / RFU LOC100653217 /// NTM (11731650_a_at) / Fold change /veh LOC100653217 /// NTM (11731650_a_at) / RFU MAPK11 (11762145_a_at) / Fold change /veh MAPK11 (11762145_a_at) / RFU FIZ1 (11724087_x_at) / Fold change /veh FIZ1 (11724087_x_at) / RFU OASL (11726364_x_at) / Fold change /veh OASL (11726364_x_at) / RFU SOX15 (11748057_x_at) / Fold change /veh SOX15 (11748057_x_at) / RFU CD79A (11719716_a_at) / Fold change /veh CD79A (11719716_a_at) / RFU HIST1H1D (11736915_at) / Fold change /veh HIST1H1D (11736915_at) / RFU CASKIN2 (11723855_a_at) / Fold change /veh CASKIN2 (11723855_a_at) / RFU LOC730098 (11760151_x_at) / Fold change /veh LOC730098 (11760151_x_at) / RFU OR4N2 (11742367_at) / Fold change /veh OR4N2 (11742367_at) / RFU PRRT2 (11749266_a_at) / Fold change /veh PRRT2 (11749266_a_at) / RFU SNX32 (11753110_a_at) / Fold change /veh SNX32 (11753110_a_at) / RFU CDHR5 (11726645_a_at) / Fold change /veh CDHR5 (11726645_a_at) / RFU RCAN1 (11760418_a_at) / Fold change /veh RCAN1 (11760418_a_at) / RFU FAM167A (11723789_a_at) / Fold change /veh FAM167A (11723789_a_at) / RFU FAM26E (11764081_at) / Fold change /veh FAM26E (11764081_at) / RFU ISYNA1 (11749810_s_at) / Fold change /veh ISYNA1 (11749810_s_at) / RFU ACY1 (11761880_at) / Fold change /veh ACY1 (11761880_at) / RFU 11764098_at / Fold change /veh 11764098_at / RFU SAMD14 (11745864_x_at) / Fold change /veh SAMD14 (11745864_x_at) / RFU NPB (11741838_a_at) / Fold change /veh NPB (11741838_a_at) / RFU TMPRSS6 (11731388_a_at) / Fold change /veh TMPRSS6 (11731388_a_at) / RFU KRTAP10-2 (11738614_at) / Fold change /veh KRTAP10-2 (11738614_at) / RFU ARHGAP8 /// PRR5-ARHGAP8 (11727945_x_at) / Fold change /veh ARHGAP8 /// PRR5-ARHGAP8 (11727945_x_at) / RFU KRTAP5-7 /// NADSYN1 (11734609_at) / Fold change /veh KRTAP5-7 /// NADSYN1 (11734609_at) / RFU RASL12 (11751679_a_at) / Fold change /veh RASL12 (11751679_a_at) / RFU CDKN2B (11736163_a_at) / Fold change /veh CDKN2B (11736163_a_at) / RFU PRF1 (11729649_at) / Fold change /veh PRF1 (11729649_at) / RFU, ZNF638 /// ZNF638-IT1 / Fold change vs veh, ZNF638 /// ZNF638-IT1 / RFU, PANK3 / Fold change vs veh, PANK3 / RFU, SH3YL1 / Fold change vs veh, SH3YL1 / RFU, ZEB2 / Fold change vs veh, ZEB2 / RFU, NRIP1 / Fold change vs veh, NRIP1 / RFU, PTTG1IP / Fold change vs veh, PTTG1IP / RFU, CAPN2 / Fold change vs veh, CAPN2 / RFU, MED14 / Fold change vs veh, MED14 / RFU, SNORA58 / Fold change vs veh, SNORA58 / RFU, C1orf63 / Fold change vs veh, C1orf63 / RFU, LRRFIP1 / Fold change vs veh, LRRFIP1 / RFU, NDUFAF7 / Fold change vs veh, NDUFAF7 / RFU, SLC12A2 / Fold change vs veh, SLC12A2 / RFU, IBTK / Fold change vs veh, IBTK / RFU, ESF1 / Fold change vs veh, ESF1 / Fold change vs veh, TMEM50B / RFU, TAOK1 / Fold change vs veh, TAOK1 / RFU, ACBD3 / Fold change vs veh, ACBD3 / RFU, TMA16 / Fold change vs veh, TMA16 / RFU, RWDD3 / Fold change vs veh, RWDD3 / RFU, BCAT1 / Fold change vs veh, BCAT1 / RFU, EDEM3 / Fold change vs veh, EDEM3 / RFU, TMEM33 / Fold change vs veh, TMEM33 / RFU, WDR75 / Fold change vs veh, WDR75 / RFU, AHCTF1 / Fold change vs veh, AHCTF1 / RFU, TFRC / Fold change vs veh, TFRC / RFU, ZDHHC17 / Fold change vs veh, ZDHHC17 / RFU, NOM1 / Fold change vs veh, NOM1 / RFU, ARL8B / Fold change vs veh, ARL8B / RFU, ZBTB11 / Fold change vs veh, ZBTB11 / RFU, TAMM41 / Fold change vs veh, TAMM41 / RFU, KIAA1704 /// LOC100996395 / Fold change vs veh, KIAA1704 /// LOC100996395 / RFU, ING1 / Fold change vs veh, ING1 / RFU, TRMT61B / Fold change vs veh, TRMT61B / RFU, FUBP3 / Fold change vs veh, FUBP3 / RFU, TP53 / Fold change vs veh, TP53 / RFU, TNKS2 / Fold change vs veh, TNKS2 / RFU, ZFP14 / Fold change vs veh, ZFP14 / RFU, ACTR2 / Fold change vs veh, ACTR2 / RFU, PPP3R1 / Fold change vs veh, PPP3R1 / RFU, PIK3R1 / Fold change vs veh, PIK3R1 / RFU, HNRNPA1 / Fold change vs veh, HNRNPA1 / RFU, RNF170 / Fold change vs veh, RNF170 / RFU, ZNF28 / Fold change vs veh, ZNF28 / RFU, RNGTT / Fold change vs veh, RNGTT / RFU, OGT / Fold change vs veh, OGT / RFU, BRD1 / Fold change vs veh, BRD1 / RFU, MARS / Fold change vs veh, MARS / RFU, ZNF655 / Fold change vs veh, ZNF655 / RFU, FAHD1 / Fold change vs veh, FAHD1 / RFU, BDP1 / Fold change vs veh, BDP1 / RFU, LRRCC1 / Fold change vs veh, LRRCC1 / RFU, ARID1A / Fold change vs veh, ARID1A / RFU, ZNF146 / Fold change vs veh, ZNF146 / RFU, ZNF330 / Fold change vs veh, ZNF330 / RFU, GPN3 / Fold change vs veh, GPN3 / RFU, C9orf123 / Fold change vs veh, C9orf123 / RFU, N4BP2L2 / Fold change vs veh, N4BP2L2 / RFU, ARFIP1 / Fold change vs veh, ARFIP1 / RFU, FAM179B / Fold change vs veh, FAM179B / RFU, BCL10 / Fold change vs veh, BCL10 / RFU, UHRF1BP1L / Fold change vs veh, UHRF1BP1L / RFU, BET1 / Fold change vs veh, BET1 / RFU, CNOT2 / Fold change vs veh, CNOT2 / RFU, ZNF268 / Fold change vs veh, ZNF268 / Fold change vs veh, ZNF507 / RFU, DGCR2 / Fold change vs veh, DGCR2 / RFU, WDSUB1 / Fold change vs veh, WDSUB1 / Fold change vs veh, HSP90B1 /// MIR3652 / RFU, ADSS / Fold change vs veh, ADSS / RFU, GK / Fold change vs veh, GK / RFU, ZNF148 / Fold change vs veh, ZNF148 / RFU, TAF9 / Fold change vs veh, TAF9 / RFU, SLC1A5 / Fold change vs veh, SLC1A5 / RFU, SLMO2 / Fold change vs veh, SLMO2 / RFU, ABCC4 / Fold change vs veh, ABCC4 / RFU, LOC101060439 /// RAP1B / Fold change vs veh, LOC101060439 /// RAP1B / RFU, RFX7 / Fold change vs veh, RFX7 / RFU, GTPBP10 / Fold change vs veh, GTPBP10 / RFU, CNEP1R1 / Fold change vs veh, CNEP1R1 / RFU, BIVM-ERCC5 /// ERCC5 / Fold change vs veh, BIVM-ERCC5 /// ERCC5 / RFU, ILF3 / Fold change vs veh, ILF3 / RFU 11762660_at / Fold change /veh 11762660_at / RFU VCAN (11757783_s_at) / Fold change /veh VCAN (11757783_s_at) / RFU DDX43 (11728927_at) / Fold change /veh DDX43 (11728927_at) / RFU KRT8 (11758188_x_at) / Fold change /veh KRT8 (11758188_x_at) / RFU NKD1 (11759106_at) / Fold change /veh NKD1 (11759106_at) / RFU SRD5A1 (11742802_a_at) / Fold change /veh SRD5A1 (11742802_a_at) / RFU TPSAB1 /// TPSB2 (11721975_s_at) / Fold change /veh TPSAB1 /// TPSB2 (11721975_s_at) / RFU GSTM3 (11746129_a_at) / Fold change /veh GSTM3 (11746129_a_at) / RFU IL23R (11737362_x_at) / Fold change /veh IL23R (11737362_x_at) / RFU TMEM51 (11727254_a_at) / Fold change /veh TMEM51 (11727254_a_at) / RFU PIWIL2 (11732686_x_at) / Fold change /veh PIWIL2 (11732686_x_at) / RFU ORM1 (11744905_x_at) / Fold change /veh ORM1 (11744905_x_at) / RFU CCDC152 (11743942_at) / Fold change /veh CCDC152 (11743942_at) / RFU ECM1 (11717891_a_at) / Fold change /veh ECM1 (11717891_a_at) / RFU IL23R (11748794_a_at) / Fold change /veh IL23R (11748794_a_at) / RFU TNFAIP8L3 (11732012_x_at) / Fold change /veh TNFAIP8L3 (11732012_x_at) / RFU MBOAT4 (11741988_at) / Fold change /veh MBOAT4 (11741988_at) / RFU 11764193_at / Fold change /veh 11764193_at / RFU TMEM53 (11763286_at) / Fold change /veh TMEM53 (11763286_at) / RFU MAGEB2 (11727129_at) / Fold change /veh MAGEB2 (11727129_at) / RFU TMEM200A (11744735_a_at) / Fold change /veh TMEM200A (11744735_a_at) / RFU CCDC152 (11751479_a_at) / Fold change /veh CCDC152 (11751479_a_at) / RFU FAM211A (11726209_a_at) / Fold change /veh FAM211A (11726209_a_at) / RFU RGS16 (11746705_a_at) / Fold change /veh RGS16 (11746705_a_at) / RFU VCAN (11755009_s_at) / Fold change /veh VCAN (11755009_s_at) / RFU RHOB (11743442_s_at) / Fold change /veh RHOB (11743442_s_at) / RFU RGS16 (11720943_a_at) / Fold change /veh RGS16 (11720943_a_at) / RFU RGS16 (11720944_at) / Fold change /veh RGS16 (11720944_at) / RFU, VPS4B / Fold change vs veh, VPS4B / RFU, CREB1 / Fold change vs veh, CREB1 / RFU, DNAJC13 / Fold change vs veh, DNAJC13 / RFU, GNAQ / Fold change vs veh, GNAQ / RFU, CDK5R1 / Fold change vs veh, CDK5R1 / RFU, ZRANB3 / Fold change vs veh, ZRANB3 / RFU, CUL4A / Fold change vs veh, CUL4A / RFU, CCNY / Fold change vs veh, CCNY / RFU, UFL1 / Fold change vs veh, UFL1 / RFU, COG3 / Fold change vs veh, COG3 / RFU, DIAPH2 / Fold change vs veh, DIAPH2 / RFU, SKA2 / Fold change vs veh, SKA2 / RFU, AFF3 / Fold change vs veh, AFF3 / RFU, LMF1 / Fold change vs veh, LMF1 / RFU, IPO11 / Fold change vs veh, IPO11 / RFU, DFFB / Fold change vs veh, DFFB / RFU, FOXP1 / Fold change vs veh, FOXP1 / RFU, CARD8 / Fold change vs veh, CARD8 / RFU, STRN3 / Fold change vs veh, STRN3 / RFU, ADK / Fold change vs veh, ADK / RFU, RASSF2 / Fold change vs veh, RASSF2 / RFU, WIPF1 / Fold change vs veh, WIPF1 / RFU, LARP1B / Fold change vs veh, LARP1B / RFU, RASA1 / Fold change vs veh, RASA1 / RFU, RB1 / Fold change vs veh, RB1 / RFU, PPFIA1 / Fold change vs veh, PPFIA1 / RFU, MAT2A / Fold change vs veh, MAT2A / RFU, CCT5 / Fold change vs veh, CCT5 / RFU, WDR92 / Fold change vs veh, WDR92 / RFU, CUX1 / Fold change vs veh, CUX1 / RFU, TTC7A / Fold change vs veh, TTC7A / RFU, TMEM135 / Fold change vs veh, TMEM135 / RFU, DEPTOR / Fold change vs veh, DEPTOR / RFU, CPM / Fold change vs veh, CPM / RFU, DNAJB6 / Fold change vs veh, DNAJB6 / RFU, CACNA2D3 / Fold change vs veh, CACNA2D3 / RFU, DTX4 / Fold change vs veh, DTX4 / RFU, TFCP2 / Fold change vs veh, TFCP2 / RFU, GMCL1 /// GMCL1P1 / Fold change vs veh, GMCL1 /// GMCL1P1 / RFU, AEBP2 / Fold change vs veh, AEBP2 / RFU, SNHG1 /// SNORD22 /// SNORD25 /// SNORD26 /// SNORD27 /// SNORD28 /// SNORD29 /// SNORD31 / Fold change vs veh, SNHG1 /// SNORD22 /// SNORD25 /// SNORD26 /// SNORD27 /// SNORD28 /// SNORD29 /// SNORD31 / Fold change (Aza/veh), C12orf56 (ProbeSet 11735607_a_at) / Fold change (ACY-1035/veh), C12orf56 (ProbeSet 11735607_a_at) / Fold change (Aza/veh), FGFR1OP (ProbeSet 11751329_s_at) / Fold change (ACY-1035/veh), FGFR1OP (ProbeSet 11751329_s_at) / Fold change (Aza/veh), VPS36 (ProbeSet 11739960_a_at) / Fold change (ACY-1035/veh), VPS36 (ProbeSet 11739960_a_at) / RFU SYPL1 (11715823_x_at) / Fold change /veh SYPL1 (11715823_x_at) / RFU IGFBP7 (11715501_s_at) / Fold change /veh IGFBP7 (11715501_s_at) / RFU REEP3 (11722064_at) / Fold change /veh REEP3 (11722064_at) / RFU IGLL1 (11728026_x_at) / Fold change /veh IGLL1 (11728026_x_at): dose or concentration left out as unconfirmed
Conditions: ProbeSet 11728271_at; LIST B

Structure (SMILES): Nc1ncn([C@@H]2O[C@H](CO)[C@@H](O)[C@H]2O)c(=O)n1 [azacitidine]
- Fold change vs veh, ZNF330: 0.94
